In patent publication US9980943B2, “Methods of treating muscular dystrophy” (BOARD OF REGENTS OF THE NEVADA SYSTEM OF HIGHER EDUCATION, …, priority 2013, dated 2018):

Legend:
Assay type in all cases: cell-based, mouse
[1] = system: α7 integrin (LacZ reporter in α7βgal+/− myoblasts); assay: Myoblast α7+/LacZ integrin FDG assay (Burkin assay in myoblasts, 96-well); conditions: α7+/LacZ myoblasts, 96-well
[2] = system: α7 integrin (LacZ reporter in α7+/LacZ myotubes); assay: Myotube α7 integrin FDG assay (Burkin assay in myotubes, 96-well); conditions: myotubes
[3] = system: β-galactosidase in CMV-LacZ C2C12 myotubes; assay: CMV-LacZ secondary screen in C2C12 myotubes (β-Gal stabilizing assay); conditions: for CMV-LACZ in Myotubes (β-galactosidase activity relative to DMSO): CMV-LacZ C2C12 myotubes, 96-well format; for CMV-LACZ in Myotubes, signal relative to DMSO: C2C12 CMV-LacZ myotubes, fold relative to DMSO
How it was run: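 Stable CMV-LacZ C2C12 clone; six-point curve 0.5–40 μM; duplicates.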

Row | Compound | Burkin Assay in Myoblasts, value relative to DMSO ([1]; 0.5 uM) | Burkin Assay in Myoblasts, value relative to DMSO ([1]; 1 uM) | Burkin Assay in Myoblasts, value relative to DMSO ([1]; 5 uM) | Burkin Assay in Myoblasts, value relative to DMSO ([1]; 10 uM) | Burkin Assay in Myoblasts, value relative to DMSO ([1]; 20 uM) | Burkin Assay in Myoblasts, value relative to DMSO ([1]; 40 uM) | Burkin Assay in Myotubes (signal relative to DMSO) ([2]; 0.5 uM) | Burkin Assay in Myotubes (signal relative to DMSO) ([2]; 1 uM) | Burkin Assay in Myotubes (signal relative to DMSO) ([2]; 5 uM) | Burkin Assay in Myotubes (signal relative to DMSO) ([2]; 10 uM) | Burkin Assay in Myotubes (signal relative to DMSO) ([2]; 20 uM) | Burkin Assay in Myotubes (signal relative to DMSO) ([2]; 40 uM) | CMV-LACZ in Myotubes (β-galactosidase activity relative to DMSO) ([3]; 5 uM) | CMV-LACZ in Myotubes (β-galactosidase activity relative to DMSO) ([3]; 10 uM) | CMV-LACZ in Myotubes (β-galactosidase activity relative to DMSO) ([3]; 20 uM) | CMV-LACZ in Myotubes (β-galactosidase activity relative to DMSO) ([3]; 40 uM) | CMV-LACZ in Myotubes, signal relative to DMSO ([3]; 5 uM) | CMV-LACZ in Myotubes, signal relative to DMSO ([3]; 10 uM) | CMV-LACZ in Myotubes, signal relative to DMSO ([3]; 20 uM) | CMV-LACZ in Myotubes, signal relative to DMSO ([3]; 40 uM) | further results
1 | COc1ccc(C(=O)O/N=C(\N)c2cccc(C)c2)cc1OC [MLS001165323-01] | 0.9704 | 0.9491 | 0.8821 | 0.924 | 0.8743 | 0.4779 | 0.9468 | 0.9627 | 1.166 | 1.153 | 1.054 | 1.088 | 1.072 | 0.9 | 1.315 | 1.488 |  |  |  |  | 
2 | O=[N+]([O-])c1ccc(N2CCN(c3ccccc3F)CC2)nc1 [MLS001165749-01] |  |  |  |  |  |  |  |  |  |  |  |  |  |  |  |  | 0.8271 | 0.9284 | 1.024 | 1.038 | Burkin Assay in Myoblasts, signal relative to DMSO ([1]; 0.5 uM): 1.048; Burkin Assay in Myoblasts, signal relative to DMSO ([1]; 1 uM): 1.057; Burkin Assay in Myoblasts, signal relative to DMSO ([1]; 5 uM): 1.034; Burkin Assay in Myoblasts, signal relative to DMSO ([1]; 10 uM): 0.9342; Burkin Assay in Myoblasts, signal relative to DMSO ([1]; 20 uM): 0.9628; Burkin Assay in Myoblasts, signal relative to DMSO ([1]; 40 uM): 0.7711; Burkin Assay in Myotubes, α7 integrin LacZ reporter signal relative to DMSO ([2]; 0.5 uM): 0.9532; Burkin Assay in Myotubes, α7 integrin LacZ reporter signal relative to DMSO ([2]; 1 uM): 1.078; Burkin Assay in Myotubes, α7 integrin LacZ reporter signal relative to DMSO ([2]; 5 uM): 1.1624; Burkin Assay in Myotubes, α7 integrin LacZ reporter signal relative to DMSO ([2]; 10 uM): 1.122; Burkin Assay in Myotubes, α7 integrin LacZ reporter signal relative to DMSO ([2]; 20 uM): 0.7808; Burkin Assay in Myotubes, α7 integrin LacZ reporter signal relative to DMSO ([2]; 40 uM): 0.7342
3 | Cc1ccc(-c2onc3ccc(C(=O)/C=C/N(C)C)cc23)cc1 [MLS001166156-01] | 0.8005 | 0.9085 | 0.7543 | 0.7601 | 0.7571 | 0.3481 | 1.001 | 0.8521 | 1.07 | 0.7592 | 0.8218 | 0.4461 | 0.8707 | 0.9198 | 0.7796 | 0.5227 |  |  |  |  | 
4 | O=C(O)c1cc(-c2ccccc2Cl)n(-c2cccc(Cl)c2)n1 [MLS001166325-01] | 1.017 | 0.9268 | 0.9487 | 0.9453 | 0.9772 | 1.032 | 1.057 | 1.049 | 1.112 | 1.065 | 0.9593 | 1.0054 |  |  |  |  | 0.7726 | 0.9795 | 0.8969 | 0.8785 | 
5 | COc1ccc(Cl)cc1NC(=O)CC(=O)Nc1cc(Cl)ccc1OC [MLS001166704-01] |  |  |  |  |  |  |  |  |  |  |  |  |  |  |  |  | 1.088 | 1.1553 | 1.4595 | 1.0685 | Burkin Assay in Myoblasts, signal relative to DMSO ([1]; 0.5 uM): 1.109; Burkin Assay in Myoblasts, signal relative to DMSO ([1]; 1 uM): 1.165; Burkin Assay in Myoblasts, signal relative to DMSO ([1]; 5 uM): 0.8499; Burkin Assay in Myoblasts, signal relative to DMSO ([1]; 10 uM): 0.7652; Burkin Assay in Myoblasts, signal relative to DMSO ([1]; 20 uM): 0.5747; Burkin Assay in Myoblasts, signal relative to DMSO ([1]; 40 uM): 0.4394; Burkin Assay in Myotubes, α7 integrin LacZ reporter signal relative to DMSO ([2]; 0.5 uM): 1.166; Burkin Assay in Myotubes, α7 integrin LacZ reporter signal relative to DMSO ([2]; 1 uM): 1.268; Burkin Assay in Myotubes, α7 integrin LacZ reporter signal relative to DMSO ([2]; 5 uM): 0.8936; Burkin Assay in Myotubes, α7 integrin LacZ reporter signal relative to DMSO ([2]; 10 uM): 1.065; Burkin Assay in Myotubes, α7 integrin LacZ reporter signal relative to DMSO ([2]; 20 uM): 0.7918; Burkin Assay in Myotubes, α7 integrin LacZ reporter signal relative to DMSO ([2]; 40 uM): 0.81
